Literature values, collected in patent US8961477B2, “Delivery of immune response modifier compounds” (3M Innovative Properties Company, priority 2003, dated 2015).

What was measured:
TLR 8 = target: T1, TLR 8 (Homo sapiens, UniProt Q9NR97); details: statement in words, no data given
T1 construct: expressed in transfected cells
T1 sequence (Q9NR97 27-1041): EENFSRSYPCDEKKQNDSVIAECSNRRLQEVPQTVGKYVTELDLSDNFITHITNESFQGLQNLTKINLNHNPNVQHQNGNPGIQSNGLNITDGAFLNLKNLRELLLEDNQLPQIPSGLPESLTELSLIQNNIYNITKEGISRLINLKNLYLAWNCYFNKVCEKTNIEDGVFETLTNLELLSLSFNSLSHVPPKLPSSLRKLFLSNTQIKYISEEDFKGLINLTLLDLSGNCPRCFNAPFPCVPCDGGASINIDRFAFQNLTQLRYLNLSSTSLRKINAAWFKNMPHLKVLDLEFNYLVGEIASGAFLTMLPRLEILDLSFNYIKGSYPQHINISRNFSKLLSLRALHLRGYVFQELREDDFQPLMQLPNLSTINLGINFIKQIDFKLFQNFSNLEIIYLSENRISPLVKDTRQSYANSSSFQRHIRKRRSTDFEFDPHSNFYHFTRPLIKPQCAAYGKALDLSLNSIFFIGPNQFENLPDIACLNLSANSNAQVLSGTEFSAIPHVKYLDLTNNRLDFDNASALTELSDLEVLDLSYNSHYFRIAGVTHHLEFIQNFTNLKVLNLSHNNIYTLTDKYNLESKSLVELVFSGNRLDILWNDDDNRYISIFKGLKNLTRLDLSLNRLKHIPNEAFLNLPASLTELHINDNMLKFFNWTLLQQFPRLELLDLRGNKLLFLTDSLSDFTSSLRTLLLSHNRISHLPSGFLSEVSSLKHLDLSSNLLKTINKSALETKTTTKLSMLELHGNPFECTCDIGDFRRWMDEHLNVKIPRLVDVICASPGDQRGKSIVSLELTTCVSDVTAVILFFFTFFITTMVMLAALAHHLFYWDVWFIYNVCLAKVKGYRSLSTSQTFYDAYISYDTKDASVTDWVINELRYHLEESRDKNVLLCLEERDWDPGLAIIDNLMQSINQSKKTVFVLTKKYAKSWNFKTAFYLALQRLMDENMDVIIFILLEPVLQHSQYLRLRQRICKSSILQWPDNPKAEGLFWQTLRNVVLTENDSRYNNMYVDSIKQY

TLR 7 = target: T2, TLR 7 (Homo sapiens, UniProt Q9NYK1); details: statement in words, no data given
T2 construct: expressed in transfected cells
T2 sequence (Q9NYK1 27-1049): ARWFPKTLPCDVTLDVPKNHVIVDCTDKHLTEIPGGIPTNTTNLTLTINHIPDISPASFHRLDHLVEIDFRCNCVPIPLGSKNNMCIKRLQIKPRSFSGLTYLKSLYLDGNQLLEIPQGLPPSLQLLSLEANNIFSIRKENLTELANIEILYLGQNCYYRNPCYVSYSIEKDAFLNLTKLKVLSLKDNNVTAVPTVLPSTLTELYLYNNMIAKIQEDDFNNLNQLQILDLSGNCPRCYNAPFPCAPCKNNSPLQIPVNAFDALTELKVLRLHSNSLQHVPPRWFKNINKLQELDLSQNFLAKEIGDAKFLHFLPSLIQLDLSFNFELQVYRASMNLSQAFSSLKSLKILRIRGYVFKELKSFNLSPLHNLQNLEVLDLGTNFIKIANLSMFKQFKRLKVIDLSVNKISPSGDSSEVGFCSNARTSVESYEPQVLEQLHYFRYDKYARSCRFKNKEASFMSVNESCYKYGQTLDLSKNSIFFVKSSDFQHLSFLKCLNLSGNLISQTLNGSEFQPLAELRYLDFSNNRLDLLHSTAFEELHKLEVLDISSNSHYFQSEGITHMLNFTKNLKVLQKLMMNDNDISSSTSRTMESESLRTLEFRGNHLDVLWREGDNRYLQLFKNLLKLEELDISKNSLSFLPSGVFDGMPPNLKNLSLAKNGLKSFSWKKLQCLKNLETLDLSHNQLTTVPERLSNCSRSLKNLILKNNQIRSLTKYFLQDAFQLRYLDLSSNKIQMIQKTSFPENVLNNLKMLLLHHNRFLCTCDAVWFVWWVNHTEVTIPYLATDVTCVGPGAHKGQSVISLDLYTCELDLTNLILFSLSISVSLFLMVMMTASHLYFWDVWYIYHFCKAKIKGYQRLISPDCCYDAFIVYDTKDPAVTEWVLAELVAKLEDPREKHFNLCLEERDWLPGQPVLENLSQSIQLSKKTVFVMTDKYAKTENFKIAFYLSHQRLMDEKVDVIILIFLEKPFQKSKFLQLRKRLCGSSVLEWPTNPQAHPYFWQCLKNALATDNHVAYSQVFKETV

[1] = delivered systemically
TLR 6 = target: T3, TLR 6 (Homo sapiens, UniProt Q9Y2C9); details: statement in words, no data given
T3 construct: expressed in transfected cells
T3 sequence (Q9Y2C9 32-796): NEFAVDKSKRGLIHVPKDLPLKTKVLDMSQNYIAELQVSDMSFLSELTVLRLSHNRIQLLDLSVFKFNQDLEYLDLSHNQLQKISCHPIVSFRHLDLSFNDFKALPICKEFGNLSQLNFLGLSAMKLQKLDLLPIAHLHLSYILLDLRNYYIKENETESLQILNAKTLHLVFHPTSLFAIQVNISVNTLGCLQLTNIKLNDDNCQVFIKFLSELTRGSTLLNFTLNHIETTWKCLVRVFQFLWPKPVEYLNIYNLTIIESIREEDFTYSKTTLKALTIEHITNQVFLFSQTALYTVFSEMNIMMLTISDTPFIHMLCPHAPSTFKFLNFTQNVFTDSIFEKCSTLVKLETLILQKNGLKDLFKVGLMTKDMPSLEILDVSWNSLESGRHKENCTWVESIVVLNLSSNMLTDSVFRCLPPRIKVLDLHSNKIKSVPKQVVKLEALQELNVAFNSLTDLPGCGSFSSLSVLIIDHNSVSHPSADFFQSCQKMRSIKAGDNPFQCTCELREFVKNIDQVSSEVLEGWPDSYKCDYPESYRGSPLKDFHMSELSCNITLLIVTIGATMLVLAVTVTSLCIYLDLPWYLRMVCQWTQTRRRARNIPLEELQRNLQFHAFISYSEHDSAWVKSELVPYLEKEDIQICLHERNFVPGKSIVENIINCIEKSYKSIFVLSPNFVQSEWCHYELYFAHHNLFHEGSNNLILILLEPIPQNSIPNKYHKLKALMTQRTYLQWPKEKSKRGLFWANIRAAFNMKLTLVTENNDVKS

TLR 8 agonist activity (TLR 8)	TLR 7 agonist activity (TLR 7)	CNS effect compared to imiquimod [1]	TLR 6 activity (TLR 6)	Compound
not a substantial TLR 8 agonist	predominantly a TLR 7 agonist	much lower CNS effect	TLR 6 activity	CC(C)(O)Cn1cnc2c(N)nc3ccccc3c21 [4-amino-α,α-dimethyl-1H-imidazo[4,5-c]quinoline-1-ethanol]
TLR 7 and TLR 8 agonist	TLR 7 and TLR 8 agonist	–	–	CCOCc1nc2c(N)nc3c(c2n1CC(C)(C)O)CCCC3 [4-amino-2-(ethoxymethyl)-α,α-dimethyl-6,7,8,9-tetrahydro-1H-imidazo[4,5-c]quinoline-1-ethanol]
